In patent publication US20260083130A1, “NOVEL SULFONATE BENZAMIDE COMPOUNDS FOR CONTROLLING INVERTEBRATE PESTS” (FMC CORPORATION, priority 2022, published 2026):
Like-named read-outs stand apart in the source and are kept apart here.

Assays:
Type in all cases: in vivo
[1] = tested on: Corn Planthopper (Peregrinus maidis (Ashmead)); test: Test C: control of Corn Planthopper, spray on corn plant; settings: 144 h, nymphs, assessed after 6 days; for mortality at 250 ppm: sprayed at 250 ppm; for mortality at 50 ppm: sprayed at 50 ppm
Experimental: (§1) Test compounds were formulated using a solution containing 10% acetone, 90% water and 300 ppm Activator 90® non-ionic surfactant (Loveland Products, Loveland, Colorado, USA). The formulated compounds were applied in 1 mL of liquid through an atomized nozzle positioned 1.27 cm (0.5 inches) above the top of each test unit. Test compounds were sprayed at the rates indicated, and each test was replicated three times.
For evaluating control of Corn Planthopper (Peregrinus maidis (Ashmead)) through contact and/or systemic means, the test unit consisted of a small open container with a 3- to 4-day-old corn (maize) plant inside. White sand was added to the top of the soil prior to application of the test compound.
Test compounds were formulated and sprayed at 250 and 50 ppm with three replications as described above. After spraying of the formulated test compound, the test units were allowed to dry for 1 h before they were post-infested with ˜15-20 nymphs (18-to-21-day-old). A black, screened cap was placed on the top of each test unit, and the test units were held for 6 days in a growth chamber at 22 to 24° C. and 50-70% relative humidity. Each test unit was then visually assessed for insect mortality.

[2] = tested on: Green Peach Aphid (Myzus persicae (Sulzer)); test: Test D: control of Green Peach Aphid, spray on radish plant; settings: 144 h, assessed after 6 days; for mortality at 250 ppm: sprayed at 250 ppm
Experimental: as §1
For evaluating control of Green Peach Aphid (Myzus persicae (Sulzer)) through contact and/or systemic means, the test unit consisted of a small open container with a 12- to 15-day-old radish plant inside. Prior to compound application, each test unit was pre-infested by placing on a leaf of the test plant 30-40 aphids on a piece of leaf excised from a culture plant (cut-leaf method). The aphids moved onto the test plant as the leaf piece desiccated. After pre-infestation, the soil of the test unit was covered with a layer of sand.
Test compounds were formulated and sprayed at 250 and 50 ppm with three replications as described above. After spraying of the formulated test compound, each test unit was allowed to dry for 1 hour and then a black, screened cap was placed on top. The test units were held for 6 days in a growth chamber at 19-21° C. and 50-70% relative humidity. Each test unit was then visually assessed for insect mortality.

[3] = tested on: cotton melon aphid (Aphis gossypii (Glover)); test: Test E: control of cotton melon aphid, spray on okra plant; settings: 144 h; for mortality at 2 ppm: sprayed at 2 ppm; for mortality at 10 ppm: sprayed at 10 ppm
Experimental: as §1
For evaluating control of cotton melon aphid (Aphis gossypii (Glover)) through contact and/or systemic means, the test unit consisted of a small open container with a 5-day-old okra plant inside. This was pre-infested with 30-40 insects on a piece of leaf according to the cut-leaf method, and the soil of the test unit was covered with a layer of sand.
Test compounds were formulated and sprayed at 250, 50, 10, and 2 ppm with three replications as described above. After spraying, the test units were maintained in a growth chamber for 6 days at 19° C. and 70% relative humidity. Each test unit was then visually assessed for insect mortality.

[4] = sprayed at 50 ppm, assessed after 6 days, read-out: mortality
[5] = sprayed at 250 ppm, assessed after 6 days, read-out: mortality

CC(NC(=O)c1cc(Cl)cc(OS(=O)(=O)C(F)(F)F)c1)c1ncnn1-c1ncccn1 (centres unmarked) [Compound 4, 3-Chloro-5-[[[1-[1-(2-pyrimidinyl)-1H-1,2,4-triazol-5-yl]ethyl]amino]carbonyl]phenyl 1,1,1-trifluoromethanesulfonate]
≥ 80%: mortality at 250 ppm [1] | mortality at 50 ppm ([2]; sprayed at 50 ppm) | mortality at 250 ppm [2] | mortality at 2 ppm ([3]; assessed after 6 days) | mortality at 10 ppm ([3]; assessed after 6 days) | mortality at 50 ppm [3, 4] | mortality at 250 ppm [3, 5]

C[C@@H](NC(=O)c1cc(OS(=O)(=O)C(F)(F)F)cc(C(F)(F)F)c1)c1ncnn1-c1ncccn1 [Compound 13, (R)3-[[[1-[1-(2-Pyrimidinyl)-1H-1,2,4-triazol-5-yl]ethyl]amino]carbonyl]-5-(trifluoromethyl)phenyl 1,1,1-trifluoromethanesulfonate; (+) enantiomer]
≥ 80%: mortality at 50 ppm [1] | mortality at 250 ppm [1] | mortality at 250 ppm [2] | mortality at 2 ppm ([3]; assessed after 6 days) | mortality at 10 ppm ([3]; assessed after 6 days) | mortality at 50 ppm [3, 4] | mortality at 250 ppm [3, 5]

CC(NC(=O)c1cc(OS(=O)(=O)C(F)(F)F)cc(C(F)(F)F)c1)c1ncnn1-c1ncccn1 (centres unmarked) [Compound 2, 3-[[[1-[1-(2-Pyrimidinyl)-1H-1,2,4-triazol-5-yl]ethyl]amino]carbonyl]-5-(trifluoromethyl)phenyl 1,1,1-trifluoromethanesulfonate]
≥ 80%: mortality at 2 ppm ([3]; assessed after 6 days) | mortality at 10 ppm ([3]; assessed after 6 days) | mortality at 50 ppm [3, 4] | mortality at 250 ppm [3, 5]

CC(NC(=O)c1cc(Br)cc(OS(=O)(=O)C(F)(F)F)c1)c1ncnn1-c1ncccn1 (centres unmarked) [Compound 15, 3-Bromo-5-[[[1-[1-(2-pyrimidinyl)-1H-1,2,4-triazol-5-yl]ethyl]amino]carbonyl]phenyl 1,1,1-trifluoromethanesulfonate]
≥ 80%: mortality at 50 ppm [3, 4] | mortality at 250 ppm [3, 5]

CC(c1ncnn1-c1ncccn1)N(CC1CC1)C(=O)c1cc(OS(=O)(=O)C(F)(F)F)cc(C(F)(F)F)c1 (centres unmarked) [Compound 11, 3-[[(Cyclopropylmethyl)[1-[1-(2-pyrimidinyl)-1H-1,2,4-triazol-5-yl]ethyl]amino]carbonyl]-5-(trifluoromethyl)phenyl 1,1,1-trifluoromethanesulfonate]
≥ 80%: mortality at 50 ppm [1] | mortality at 250 ppm [1] | mortality at 250 ppm [2] | mortality at 2 ppm ([3]; assessed after 6 days) | mortality at 10 ppm ([3]; assessed after 6 days) | mortality at 50 ppm [3, 4] | mortality at 250 ppm [3, 5]

COC(=O)N(C(=O)c1cc(OS(=O)(=O)C(F)(F)F)cc(C(F)(F)F)c1)C(C)c1ncnn1-c1ncccn1 (centres unmarked) [Compound 48]
≥ 80%: mortality at 50 ppm [3] | mortality at 250 ppm [3]

CC(NC(=O)c1cc(F)cc(OS(=O)(=O)C(F)(F)F)c1)c1ncnn1-c1ncccn1 (centres unmarked) [Compound 14, 3-Fluoro-5-[[[1-[1-(2-pyrimidinyl)-1H-1,2,4-triazol-5-yl]ethyl]amino]carbonyl]phenyl 1,1,1-trifluoromethanesulfonate]
≥ 80%: mortality at 50 ppm [3, 4] | mortality at 250 ppm [3, 5]

C[C@@H](NC(=O)c1cc(Cl)cc(OS(=O)(=O)C(F)(F)F)c1)c1ncnn1-c1ncccn1 [Compound 9, 3-Chloro-5-[[[1-[1-(2-pyrimidinyl)-1H-1,2,4-triazol-5-yl]ethyl]amino]carbonyl]phenyl 1,1,1-trifluoromethanesulfonate; (+) enantiomer]
≥ 80%: mortality at 50 ppm [1] | mortality at 250 ppm [1] | mortality at 250 ppm [2] | mortality at 50 ppm [3, 4] | mortality at 250 ppm [3, 5]

CC(NC(=O)c1cccc(OS(=O)(=O)c2ccccc2)c1)c1ncnn1-c1ncccn1 (centres unmarked) [Compound 6, 3-[(Phenylsulfonyl)oxy]-N-[1-[1-(2-pyrimidinyl)-1H-1,2,4-triazol-5-yl]ethyl]benzamide]
≥ 80%: mortality at 250 ppm [3, 5]

CC(c1ncnn1-c1ncccn1)N(C)C(=O)c1cc(Cl)cc(OS(=O)(=O)C(F)(F)F)c1 (centres unmarked) [Compound 72]
≥ 80%: mortality at 50 ppm [1] | mortality at 250 ppm [1] | mortality at 250 ppm [2] | mortality at 2 ppm ([3]; assessed after 6 days) | mortality at 10 ppm ([3]; assessed after 6 days) | mortality at 50 ppm [3, 4] | mortality at 250 ppm [3, 5]

CCN(C(=O)c1cc(Cl)cc(OS(=O)(=O)C(F)(F)F)c1)C(C)c1ncnn1-c1ncccn1 (centres unmarked) [Compound 50, 3-chloro-5-[[ethyl[1-[1-(2-pyrimidinyl)-1H-1,2,4-triazol-5-yl]ethyl]amino]carbonyl]phenyl 1,1,1-trifluoromethanesulfonate]
≥ 80%: mortality at 250 ppm [1] | mortality at 250 ppm [2] | mortality at 50 ppm [3, 4] | mortality at 250 ppm [3, 5]

CC(NC(=O)c1cccc(OS(=O)(=O)C(F)(F)F)c1)c1ncnn1-c1ncccn1 (centres unmarked) [Compound 3, 3-[[[1-[1-(2-Pyrimidinyl)-1H-1,2,4-triazol-5-yl]ethyl]amino]carbonyl]phenyl 1,1,1-trifluoromethanesulfonate]
≥ 80%: mortality at 250 ppm [1] | mortality at 50 ppm [3, 4] | mortality at 250 ppm [3, 5]

CC(NC(=O)c1cc(Cl)cc(OS(=O)(=O)CC(F)(F)F)c1)c1ncnn1-c1ncccn1 (centres unmarked) [Compound 52]
≥ 80%: mortality at 250 ppm [3, 5]

CC(NC(=O)c1cc(OS(=O)(=O)C(F)(F)F)cc([N+](=O)[O-])c1)c1ncnn1-c1ncccn1 (centres unmarked) [Compound 46]
≥ 80%: mortality at 50 ppm [3, 4] | mortality at 250 ppm [3, 5]

COC(=O)N(C(=O)c1cc(Cl)cc(OS(=O)(=O)C(F)(F)F)c1)C(C)c1ncnn1-c1ncccn1 (centres unmarked) [Compound 20]
≥ 80%: mortality at 50 ppm [3] | mortality at 250 ppm [3]

CC(NC(=O)c1cc(OS(=O)(=O)C(F)F)cc(C(F)(F)F)c1)c1ncnn1-c1ncccn1 (centres unmarked) [Compound 38]
≥ 80%: mortality at 250 ppm [3, 5]

CC(c1ncnn1-c1ncccn1)N(CC1CC1)C(=O)c1cc(Cl)cc(OS(=O)(=O)C(F)(F)F)c1 (centres unmarked) [Compound 10, 3-Chloro-5-[[(cyclopropylmethyl)[1-[1-(2-pyrimidinyl)-1H-1,2,4-triazol-5-yl]ethyl]amino]carbonyl]phenyl 1,1,1-trifluoromethanesulfonate]
≥ 80%: mortality at 50 ppm [1] | mortality at 250 ppm [1] | mortality at 2 ppm ([3]; assessed after 6 days) | mortality at 10 ppm ([3]; assessed after 6 days) | mortality at 50 ppm [3, 4] | mortality at 250 ppm [3, 5]

C[C@H](NC(=O)c1cc(OS(=O)(=O)C(F)(F)F)cc(C(F)(F)F)c1)c1ncnn1-c1ncccn1 [Compound 12, 3-[[[(1S)-[1-(2-Pyrimidinyl)-1H-1,2,4-triazol-5-yl]ethyl]amino]carbonyl]-5-(trifluoromethyl)phenyl 1,1,1-trifluoromethanesulfonate; (−) enantiomer]
≥ 80%: mortality at 250 ppm [3, 5]

CC(NC(=O)c1cc(OS(=O)(=O)CC(F)(F)F)cc(C(F)(F)F)c1)c1ncnn1-c1ncccn1 (centres unmarked) [Compound 28]
≥ 80%: mortality at 250 ppm [3, 5]

CCN(C(=O)c1cc(OS(=O)(=O)C(F)(F)F)cc(C(F)(F)F)c1)C(C)c1ncnn1-c1ncccn1 (centres unmarked) [Compound 27, 3-[[ethyl[1-[1-(2-pyrimidinyl)-1H-1,2,4-triazol-5-yl]ethyl]amino]carbonyl]-5-(trifluoromethyl)phenyl 1,1,1-trifluoromethanesulfonate]
≥ 80%: mortality at 250 ppm [1] | mortality at 50 ppm [3, 4] | mortality at 250 ppm [3, 5]

CC(NC(=O)c1cccc(OS(=O)(=O)C(F)F)c1)c1ncnn1-c1ncccn1 (centres unmarked) [Compound 7, 3-[[[1-[1-(2-Pyrimidinyl)-1H-1,2,4-triazol-5-yl]ethyl]amino]carbonyl]phenyl 1,1-difluoromethanesulfonate]
≥ 80%: mortality at 50 ppm [3, 4] | mortality at 250 ppm [3, 5]

CC(NC(=O)c1cc(Cl)cc(OS(=O)(=O)C(F)F)c1)c1ncnn1-c1ncccn1 (centres unmarked) [Compound 39]
≥ 80%: mortality at 250 ppm [3, 5]
